Data from US20090252788A1, “Balsalazide formulations and manufacture and use thereof” (Salix Pharmaceuticals, Inc., priority 2005, published 2009).

Experiments:
[1] = Solubility of balsalazide disodium in solvents; type: physicochemical
[2] = Stability of standard and sample solutions in dissolution medium; type: physicochemical; conditions: room temperature, unprotected from light
Experimental: Prepare the stock standard solution in duplicate. For each preparation, transfer approximately 35 mg of Balsalazide Disodium Reference Standard, accurately weighed, to a 200-mL volumetric flask. Add 150 mL of dissolution medium, swirl and briefly sonicate to dissolve the flask contents. Dilute to volume with dissolution medium and mix well. Stock Standard Preparation A should be used for analysis of dissolution samples. Prep B should be used as the standard check preparation. The stock standard preparation is stable for 4 days when stored at room temperature and unprotected from light.
For each of the stock standard preparations, pipet 5.0 mL of the stock solution into a 50-mL volumetric flask, dilute to volume with dissolution medium, and mix well. The working standard preparation is stable for 4 days when stored at room temperature and unprotected from light.
Perform USP Apparatus 2 dissolution testing on six individual capsules utilizing the dissolution conditions listed below. Immediately, filter the samples using a 0.2 μm Gelman Nylon filter or a 10-μm Vankel Full Flow filter, discarding the first 2 mL of sample. Pipet 2.0 mL of the sample filtrate into a 100-mL volumetric flask, dilute to volume with dissolution medium, and mix well (nominal concentration: 0.017 mg Balsalazide Disodium per mL). […]

O.O.O=C([O-])CCNC(=O)c1ccc(/N=N/c2ccc(O)c(C(=O)[O-])c2)cc1.[Na+].[Na+] [Balsalazide disodium, (E)-5-[[-4-[[(2-carboxyethyl)amino]carbonyl]phenyl]azo]-2-hydroxybenzoic acid, disodium salt, dihydrate]
Solubility ([1]; in all other organic solvents): practically insoluble
Solubility ([1]; in ethanol): sparingly soluble
Solubility ([1]; in isotonic saline): freely soluble
Solubility ([1]; in methanol): sparingly soluble
Solubility ([1]; in water): freely soluble
Time the preparation is stable ([2]; stock standard preparation 0.175 mg/mL in dissolution medium): 4 days
Time the preparation is stable ([2]; working standard preparation 0.0175 mg/mL in dissolution medium): 4 days
